Here are results for 15 molecules from patent publication US20230081426A1, “COMPOUNDS AND METHODS FOR KRAS MODULATION AND INDICATIONS THEREFOR” (Plexxikon Inc., priority 2020, published 2023).

Assay [1] addresses T1, G12V-mutant human KRAS (amino acid residues 1-188) (Homo sapiens, UniProt P01116, G12V).
T1 construct: G12V-mutant human KRAS (amino acid residues 1-188) with FLAG tag was purified from E. coli; made in house; host or cells: E. coli
Nature of the assay: KRAS Binding Competition Assay (AlphaScreen; biotinylated KRpep-2d analogue), G12V. As to conditions: geometric mean, read-out: KRAS GMean IC50 (uM) MUTATION: G12V.

Assay [2] addresses T2, G12D-mutant human KRAS (amino acid residues 1-188) (Homo sapiens, UniProt P01116, G12D).
T2 construct: G12D or G12C-mutant human KRAS (amino acid residues 1-188) with FLAG tag; made in house; host or cells: E. coli
The experiment in a line: KRAS Binding Disruption Assay (AlphaScreen; biotinylated KRpep-2d analogue or RAF1-RBD), G12D. The following applies: KRAS G12D; geometric mean; read-out: KRAS GMean IC50 (uM) MUTATION: G12D. An outline of the steps:
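Mutant KRAS (5-20 nM) incubated 1 h at 25° C with test compound and 5-20 nM biotinylated KRpep-2d analogue or RAF1-RBD in 20 mM HEPES pH 7.5, 100 mM NaCl, 5 mM MgCl2, 0.01% Tween-20, 0.01% BSA.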
Background: Bead proximity is the source of the signal in Alpha formats.

SMILES strings stand for the structures.

In the case of `CN1CCC[C@H]1COc1nc(N2[C@@H]3CC[C@H]2CN(CC(=O)N2CCNCC2)C3)c2ccc(-c3cc(O)cc4ccccc34)cc2n1` [P-0269, 2-((1R,5S)-8-(7-(3-hydroxynaphthalen-1-yl)-2-(((S)-1-methylpyrrolidin-2-yl)methoxy)quinazolin-4-yl)-3,8-diazabicyclo[3.2.1]octan-3-yl)-1-(piperazin-1-yl)ethan-1-one], the IC50 in assay [1] is 10 to 100 µM; in assay [2], 0.0001 to 10 µM.
Turning to `CN1CCC[C@H]1COc1nc(N2[C@@H]3CC[C@H]2CN(c2nccc(N)n2)C3)c2ccc(-c3cc(O)cc4ccccc34)cc2n1` [P-0270, 4-(4-((1R,5S)-3-(4-aminopyrimidin-2-yl)-3,8-diazabicyclo[3.2.1]octan-8-yl)-2-(((S)-1-methylpyrrolidin-2-yl)methoxy)quinazolin-7-yl)naphthalen-2-ol], the IC50 in assay [1] is 10 to 100 µM; in assay [2] it was 0.0001 to 10 µM.
Take `CN1CCC[C@H]1COc1nc(N2[C@@H]3CC[C@H]2CN(C(=O)Nc2ccn[nH]2)C3)c2ccc(-c3cc(O)cc4ccccc34)cc2n1` [P-0271, (1R,5S)-8-(7-(3-hydroxynaphthalen-1-yl)-2-(((S)-1-methylpyrrolidin-2-yl)methoxy)quinazolin-4-yl)-N-(1H-pyrazol-5-yl)-3,8-diazabicyclo[3.2.1]octane-3-carboxamide]: the IC50 in assay [1] is 0.0001 to 10 µM; in assay [2], 10 to 100 µM.
The like results for `CN1CCC[C@H]1COc1nc(N2[C@@H]3CC[C@H]2CN(CC(O)CO)C3)c2ccc(-c3cc(O)cc4ccccc34)cc2n1` (stereo partly drawn) [P-0272, 3-((1R,5S)-8-(7-(3-hydroxynaphthalen-1-yl)-2-(((S)-1-methylpyrrolidin-2-yl)methoxy)quinazolin-4-yl)-3,8-diazabicyclo[3.2.1]octan-3-yl)propane-1,2-diol] were, in that order, 10 to 100 µM and 0.0001 to 10 µM.
The corresponding values for `CN1CCC[C@H]1COc1nc(N2[C@@H]3CC[C@H]2CN(C(=O)c2cc[nH]n2)C3)c2ccc(-c3cc(O)cc4ccccc34)cc2n1` [P-0273, ((1R,5S)-8-(7-(3-hydroxynaphthalen-1-yl)-2-(((S)-1-methylpyrrolidin-2-yl)methoxy)quinazolin-4-yl)-3,8-diazabicyclo[3.2.1]octan-3-yl)(1H-pyrazol-3-yl)methanone] are 10 to 100 µM and 10 to 100 µM.
The like results for `CN1CCC[C@H]1COc1nc(N2[C@@H]3CC[C@H]2CN(CC(=O)N2CCC(N)CC2)C3)c2ccc(-c3cc(O)cc4ccccc34)cc2n1` [P-0274, 1-(4-aminopiperidin-1-yl)-2-((1R,5S)-8-(7-(3-hydroxynaphthalen-1-yl)-2-(((S)-1-methylpyrrolidin-2-yl)methoxy)quinazolin-4-yl)-3,8-diazabicyclo[3.2.1]octan-3-yl)ethan-1-one] were, in that order, 100 to 1000 µM and 0.0001 to 10 µM.
In the case of `CN1CCC[C@H]1COc1nc(N2[C@@H]3CC[C@H]2CN(CC(=O)N2CC(O)C2)C3)c2ccc(-c3cc(O)cc4ccccc34)cc2n1` [P-0275, 1-(3-hydroxyazetidin-1-yl)-2-((1R,5S)-8-(7-(3-hydroxynaphthalen-1-yl)-2-(((S)-1-methylpyrrolidin-2-yl)methoxy)quinazolin-4-yl)-3,8-diazabicyclo[3.2.1]octan-3-yl)ethan-1-one], the IC50 in assay [1] and in assay [2] was 10 to 100 µM throughout.
With `CN1CCC[C@H]1COc1nc(N2[C@@H]3CC[C@H]2CN(CC(=O)N2CCOCC2)C3)c2ccc(-c3cc(O)cc4ccccc34)cc2n1` [P-0276, 2-((1R,5S)-8-(7-(3-hydroxynaphthalen-1-yl)-2-(((S)-1-methylpyrrolidin-2-yl)methoxy)quinazolin-4-yl)-3,8-diazabicyclo[3.2.1]octan-3-yl)-1-morpholinoethan-1-one], the IC50 in assay [1] and in assay [2] was 10 to 100 µM throughout.
With `CN1CCN(C(=O)CN2C[C@H]3CC[C@@H](C2)N3c2nc(OC[C@@H]3CCCN3C)nc3cc(-c4cc(O)cc5ccccc45)ccc23)CC1` [P-0277, 2-((1R,5S)-8-(7-(3-hydroxynaphthalen-1-yl)-2-(((S)-1-methylpyrrolidin-2-yl)methoxy)quinazolin-4-yl)-3,8-diazabicyclo[3.2.1]octan-3-yl)-1-(4-methylpiperazin-1-yl)ethan-1-one], the IC50 was in the range of 10 to 100 µM in assay [1] and 0.0001 to 10 µM in assay [2].
The like results for `CN1CCC[C@H]1COc1nc(N2C[C@H]3CC[C@@H](C2)N3CC(=O)C2CCOC2)c2ccc(-c3cc(O)cc4ccccc34)c(F)c2n1` (stereo partly drawn) [P-0278, 2-((1R,5S)-3-(8-fluoro-7-(3-hydroxynaphthalen-1-yl)-2-(((S)-1-methylpyrrolidin-2-yl)methoxy)quinazolin-4-yl)-3,8-diazabicyclo[3.2.1]octan-8-yl)-1-(tetrahydrofuran-3-yl)ethan-1-one] were, in that order, 10 to 100 µM and 0.0001 to 10 µM.
The like results for `CN(C)CCNS(=O)(=O)N1[C@@H]2CC[C@H]1CN(c1nc(OCC34CCCN3CCC4)nc3c(F)c(-c4cc(O)cc5ccccc45)ccc13)C2` [P-0280, (1R,5S)-N-(2-(dimethylamino)ethyl)-3-(8-fluoro-7-(3-hydroxynaphthalen-1-yl)-2-((tetrahydro-1H-pyrrolizin-7a(5H)-yl)methoxy)quinazolin-4-yl)-3,8-diazabicyclo[3.2.1]octane-8-sulfonamide] were, in that order, 0.0001 to 10 µM and 0.0001 to 10 µM.
The like results for `CN1CCN(CCNS(=O)(=O)N2[C@@H]3CC[C@H]2CN(c2nc(OCC45CCCN4CCC5)nc4c(F)c(-c5cc(O)cc6ccccc56)ccc24)C3)CC1` [P-0281, (1R,5S)-3-(8-fluoro-7-(3-hydroxynaphthalen-1-yl)-2-((tetrahydro-1H-pyrrolizin-7a(5H)-yl)methoxy)quinazolin-4-yl)-N-(2-(4-methylpiperazin-1-yl)ethyl)-3,8-diazabicyclo[3.2.1]octane-8-sulfonamide] were, in that order, 0.0001 to 10 µM and 0.0001 to 10 µM.
Consider `CN1CC[C@@H](NS(=O)(=O)N2[C@@H]3CC[C@H]2CN(c2nc(OCC45CCCN4CCC5)nc4c(F)c(-c5cc(O)cc6ccccc56)ccc24)C3)C1` [P-0282, (1R,5S)-3-(8-fluoro-7-(3-hydroxynaphthalen-1-yl)-2-((tetrahydro-1H-pyrrolizin-7a(5H)-yl)methoxy)quinazolin-4-yl)-N-((R)-1-methylpyrrolidin-3-yl)-3,8-diazabicyclo[3.2.1]octane-8-sulfonamide], for which the IC50 in assay [1] and in assay [2] was 0.0001 to 10 µM throughout.
Consider `CN1CCC[C@H]1COc1nc(N2[C@@H]3CC[C@H]2CNC3)c2ccc(-c3cccc4cccc(CO)c34)cc2n1` [P-0283, (8-(4-((1R,5S)-3,8-diazabicyclo[3.2.1]octan-8-yl)-2-(((S)-1-methylpyrrolidin-2-yl)methoxy)quinazolin-7-yl)naphthalen-1-yl)methanol], for which the IC50 in assay [1] and in assay [2] was 10 to 100 µM each time.
`O=S(=O)(N[C@@H]1CCNC1)N1[C@@H]2CC[C@H]1CN(c1nc(OCC34CCCN3CCC4)nc3c(F)c(-c4cc(O)cc5ccccc45)ccc13)C2` [P-0284, (1R,5S)-3-(8-fluoro-7-(3-hydroxynaphthalen-1-yl)-2-((tetrahydro-1H-pyrrolizin-7a(5H)-yl)methoxy)quinazolin-4-yl)-N-((R)-pyrrolidin-3-yl)-3,8-diazabicyclo[3.2.1]octane-8-sulfonamide]: the 50% inhibitory concentration (IC50) in assay [1] and in assay [2] was 0.0001 to 10 µM in each case.

Usually IC50 stands for the point on the concentration scale where inhibition reaches its midpoint.
